≈ marks a conversion by molar mass, not a printed value. Calls of active or inactive are those of the source. The calls are words filed in the database; no cut-off is given here.
How the values were obtained:
[1] = system: Escherichia coli; experiment: Antimicrobial activity against Escherichia coli ATCC 25922 assessed as increase in absorbance incubated for 20 to 22 hrs in presence of NH4+ physiological salt; assay type: functional, organism-based; conditions: time 20-22 hrs
[2] = system: Escherichia coli; experiment: Antibacterial activity against Escherichia coli ATCC 25922 injected intraperitoneally in ICR mouse assessed as reduction in symptoms by measuring atrophied red medulla in spleen at 10 mg/kg, ip measured after 12 hrs by H and E staining based assay; assay type: functional, organism-based
[3] = Toxicity in ICR mouse assessed as aspartate aminotransferase (AST) level in serum at 5 to 20 mg/kg, ip measured after 3 days; assay type: organism-based; conditions: in vivo, 72 h, dose 5-20 mg/kg, time 3 day
[4] = system: Escherichia coli; experiment: Resistance fold, ratio of MIC for Escherichia coli ATCC 25922 measured after 30 day passage period to MIC for Escherichia coli ATCC 25922; assay type: functional
[5] = system: Staphylococcus aureus; experiment: Antimicrobial activity against Staphylococcus aureus 29213 assessed as increase in absorbance incubated for 20 to 22 hrs; assay type: functional; conditions: time 20-22 hrs
[6] = Toxicity in ICR mouse assessed as hepatic cords morphology at 5 to 20 mg/kg, ip measured after 3 days by histopathological H and E staining based assay; assay type: organism-based; conditions: in vivo, 72 h, dose 5-20 mg/kg, time 3 day
[7] = Toxicity in ICR mouse assessed as reduced mobility at 20 mg/kg, ip measured after 1 hr; assay type: organism-based; conditions: in vivo
[8] = Toxicity in ICR mouse assessed as humpbacking at 20 mg/kg, ip measured within 1 hr; assay type: organism-based; conditions: in vivo
[9] = system: Escherichia coli; experiment: Reduction in intracellular ATP level in Escherichia coli ATCC 25922 at 2 uM measured after 1 hr incubation by Enhanced ATP assay kit; assay type: functional; parameters: scale not given: the % may be the effect or the level left
[10] = system: Escherichia coli; experiment: Antimicrobial activity against Escherichia coli ATCC 25922 assessed as increase in absorbance at 8 mg/ml incubated for 8 hrs in presence of trypsin; assay type: functional, organism-based
[11] = system: Escherichia coli; experiment: Inhibition of respiratory chain dehydrogenase (RCD) activity in Escherichia coli ATCC 25922 at 4 uM incubated for 90 mins by TTC assay
[12] = system: Escherichia coli; experiment: Antimicrobial activity against Escherichia coli ATCC 25922 assessed as increase in absorbance at MIC concentration in presence of < 8 ug/ml Lipopolysaccharide incubated for 8 hrs; assay type: functional, organism-based; conditions: dose < 8.0 µg/ml
[13] = system: Salmonella typhimurium; experiment: Antimicrobial activity against Salmonella typhimurium 7731 assessed as increase in absorbance incubated for 20 to 22 hrs; assay type: functional, Salmonella enterica subsp. enterica serovar Typhimurium; conditions: Salmonella enterica, time 20-22 hrs
[14] = Toxicity in ICR mouse assessed as liver weight change at 5 to 20 mg/kg, ip measured after 3 days; assay type: organism-based; conditions: in vivo, 72 h, dose 5-20 mg/kg, time 3 day
[15] = system: Cell membrane; experiment: Induction of cytoplasmic membrane (CM) permeabilization in Escherichia coli ATCC 25922 assessed as utilization of ONPG at 1/2 MIC; assay type: subcellular
[16] = system: Enterococcus faecalis; experiment: Antimicrobial activity against Enterococcus faecalis 29212 assessed as increase in absorbance incubated for 20 to 22 hrs; assay type: functional; conditions: time 20-22 hrs
[17] = system: Escherichia coli; experiment: Antibiofilm activity against Escherichia coli ATCC 25922 biofilm assessed as removal of matured biofilm at 16 uM; assay type: functional, organism-based
[18] = system: Escherichia coli; experiment: Antibiofilm activity against Escherichia coli ATCC 25922 biofilm assessed as inhibition of biofilm formation at 2 uM; assay type: functional, organism-based
[19] = Toxicity in ICR mouse assessed as blood urea nitrogen (BUN) level in serum at 5 to 20 mg/kg, ip measured after 3 days; assay type: organism-based; conditions: in vivo, 72 h, dose 5-20 mg/kg, time 3 day
[20] = system: HEK-293T; experiment: Cytotoxicity against human HEK293T cells assessed as cell death measured after 18 to 24 hrs by MTT assay; assay type: functional; conditions: time 18-24 hrs
[21] = system: RAW264.7; experiment: Cytotoxicity against mouse RAW264.7 cells assessed as cell death measured after 18 to 24 hrs by MTT assay; assay type: functional; conditions: time 18-24 hrs
[22] = system: Escherichia coli; experiment: Bactericidal activity against Escherichia coli ATCC 25922 assessed as reduction in bacterial viability; assay type: functional, organism-based
[23] = system: Escherichia coli; experiment: Induction of ROS accumulation in Escherichia coli ATCC 25922 at 4 uM incubated for 30 mins by DCFH-DA assay; assay type: functional, organism-based
[24] = system: Escherichia coli; experiment: Antimicrobial activity against Escherichia coli ATCC 25922 assessed as increase in absorbance incubated for 20 to 22 hrs in presence of Fe3+ physiological salt; assay type: functional, organism-based; conditions: time 20-22 hrs
[25] = system: Salmonella typhimurium; experiment: Antimicrobial activity against Salmonella typhimurium 14028 assessed as increase in absorbance incubated for 20 to 22 hrs; assay type: functional, Salmonella enterica subsp. enterica serovar Typhimurium; conditions: Salmonella enterica, time 20-22 hrs
[26] = target: Trypsin (Homo sapiens, UniProt P07477+P07478+P35030); experiment: Stability of compound assessed as trypsin (unknown origin)-mediated compound structural integrity change at 8 mg/ml incubated for 1 to 8 hrs by RP-HPLC analysis; assay type: ADME, protein assay; conditions: time 1-8 hrs
[27] = system: Escherichia coli; experiment: Antimicrobial activity against Escherichia coli ATCC 25922 assessed as increase in absorbance incubated for 20 to 22 hrs in presence of […] physiological salt; assay type: functional, organism-based; conditions: time 20-22 hrs
[28] = system: Staphylococcus aureus; experiment: Antimicrobial activity against Staphylococcus aureus 25923 assessed as increase in absorbance incubated for 20 to 22 hrs; assay type: functional; conditions: time 20-22 hrs
[29] = Stability of compound assessed as pepsin (unknown origin)-mediated compound structural integrity change at 8 mg/ml incubated for 1 to 8 hrs by RP-HPLC analysis; assay type: ADME; conditions: human, time 1-8 hrs
[30] = system: Pseudomonas aeruginosa; experiment: Antimicrobial activity against Pseudomonas aeruginosa 25349 assessed as increase in absorbance incubated for 20 to 22 hrs; assay type: functional; conditions: time 20-22 hrs
[31] = system: Escherichia coli; experiment: Antibacterial activity against Escherichia coli ATCC 25922 injected intraperitoneally in ICR mouse assessed as reduction in symptoms by measuring disorganized hepatic cords in liver at 10 mg/kg, ip measured after 12 hrs by H and E staining based assay; assay type: functional, organism-based
[32] = system: Mus musculus; experiment: Anti-inflammatory activity against Escherichia coli ATCC 25922-induced peritonitis ICR mouse model assessed as decrease in IL-1 beta level in serum spleen at 10 mg/kg, ip measured after 12 hrs; assay type: functional, organism-based
[33] = Hemolytic activity in healthy human RBC assessed as hemolysis incubated for 1 hr by microplate reader; assay type: toxicity, cell-based; conditions: erythrocyte
[34] = Stability of compound assessed as pepsin (unknown origin)-mediated compound structural integrity change at 8 mg/ml incubated for 1 to 8 hrs by 16.5% tricine-SDS-PAGE analysis; assay type: ADME; conditions: human, time 1-8 hrs
[35] = system: Escherichia coli; experiment: Bactericidal activity against Escherichia coli ATCC 25922 assessed as reduction in bacterial viability at 4 uM measured within 30 mins; assay type: functional; conditions: 0.5 h
[36] = target: Chymotrypsin (Homo sapiens, UniProt Q99895+P17538+P40313+Q6GPI1); experiment: Stability of compound assessed as chymotrypsin (unknown origin)-mediated compound structural integrity change at 8 mg/ml incubated for 1 to 8 hrs by RP-HPLC analysis; assay type: ADME, protein assay; conditions: time 1-8 hrs
[37] = Toxicity in ICR mouse assessed as reduced mobility at 20 mg/kg, ip measured within 1 hr; assay type: organism-based; conditions: in vivo
[38] = system: Escherichia coli; experiment: Antibacterial activity against Escherichia coli ATCC 25922 injected intraperitoneally in ICR mouse assessed as reduction in symptoms by measuring thickened respiratory membrane in lung at 10 mg/kg, ip measured after 12 hrs by H and E staining based assay; assay type: functional, organism-based
[39] = system: Escherichia coli; experiment: Antibacterial activity against Escherichia coli ATCC 25922 injected intraperitoneally in ICR mouse assessed as reduction in symptoms by measuring atrophy of renal glomeruli at 10 mg/kg, ip measured after 12 hrs by H and E staining based assay; assay type: functional, organism-based

SMILES: CCCCCCCCCC(=O)NCCCC[C@H](N)C(=O)NCC(=O)NCC(=O)NCC(=O)N[C@H](CCCNC(=N)N)C(=O)N[C@@H](CCCNC(=N)N)C(=O)N[C@@H](CCCNC(=N)N)C(=O)N1CCC[C@H]1C(=O)N[C@@H](CSSC[C@H](NC(=O)[C@@H]1CCCN1C(=O)[C@H](CCCNC(=N)N)NC(=O)[C@H](CCCNC(=N)N)NC(=O)[C@@H](CCCNC(=N)N)NC(=O)CNC(=O)CNC(=O)CNC(=O)[C@@H](N)CCCCNC(=O)CCCCCCCCC)C(=O)O)C(=O)O
- Activity [1]: Active; C-C10)C-C Demonstrated Superior Physiological Salt Tolerance In Comparison To (N-C10)C-C
- Activity [2]: Active
- Activity [3]: Non-toxic
- fold change (FC) [4]: <=2
- MIC [5]: 8 µM (≈ 18.2 µg/mL)
- Activity [6]: Non-toxic
- Activity [7]: Non-toxic
- Activity [8]: Toxic
- Activity [9]: ~40%
- Activity [10]: Active; Negligible Alteration In Mic Values Found
- inhibition [11]: Active
- Activity [12]: Active
- MIC [13]: 4 µM (≈ 9.12 µg/mL)
- Activity [14]: Non-toxic
- Activity [15]: Active
- MIC [16]: 4 µM (≈ 9.12 µg/mL)
- Activity [17]: Active
- Activity [18]: Active
- Activity [19]: Non-toxic
- IC10 [20]: 256 µM
- IC10 [21]: 256 µM
- Activity [22]: Dose-dependent-effect
- Activity [23]: Active
- Activity [24]: Active; C-C10)C-C Demonstrated Superior Physiological Salt Tolerance In Comparison To (N-C10)C-C
- MIC [25]: 4 µM (≈ 9.12 µg/mL)
- Stability [26]: Stable
- Activity [27]: Active; C-C10)C-C Demonstrated Superior Physiological Salt Tolerance In Comparison To (N-C10)C-C
- MIC [28]: 4 µM (≈ 9.12 µg/mL)
- Stability [29]: Stable
- MIC [30]: 4 µM (≈ 9.12 µg/mL)
- Activity [31]: Active
- Activity [32]: Active
- HC10 [33]: 256 µM
- Stability [34]: Stable
- Activity [35]: ~80%
- Stability [36]: Stable
- Activity [37]: Toxic
- Activity [38]: Active
- Activity [39]: Active
